Literature values as cited in article PMC10904332 (Science (New York, N.Y.), 2022).

Conditions: known resistance mechanisms

For bacitracin, the “MIC increase from resistance mechanisms” value is listed as greater than 254 fold.
